Reference: patent US9908890B2, “Selective inhibitors of constitutive androstane receptor” (ST. JUDE CHILDREN'S RESEARCH HOSPITAL, priority 2014, dated 2018)

How the values were obtained:
[1] = system: CAR-regulated genes in LS174T cells; experiment: Quantitative real-time PCR in LS174T cells; type: cell-based; details: 1 μM CINPA1 or 5 μM PK11195, 24 h
Text: RNA was extracted, cDNA synthesized, and gene expression analyzed by performing real-time PCR using Taqman probes for each gene. […] LS174T cells were maintained in 10% charcoal-dextran-treated, FBS media for 4 days before the experiment. […] Briefly, human primary hepatocytes (HPH) were maintained in William's E media with supplements for 4 days before treatment. […] RNA extracted was used for cDNA synthesis and measured by performing quantitative real-time PCR assays with Taqman probes.
Briefly, LS174T were maintained in 10% charcoal-dextran treated-FBS media for 4 days prior to the experiment. […] For the data shown in both FIG. 12A and FIG. 12B, RNA extracted was used for cDNA synthesis and measured by quantitative real-time PCR with Taqman probes. MDR1 mRNA was normalized to the internal control 18S and DMSO treated samples were set to 1. *, p<0.05 when compared to DMSO samples.
Cell lines or human hepatocytes were treated with chemicals for 24-48 hours before RNA was extracted and purified by using the Maxwell 16LEV simplyRNA tissue kit (Promega). Then, cDNA was prepared from 2 μg of RNA, and diluted cDNA was used to perform quantitative RT-PCR assays by using TaqMan probes (ABI; 7500 Thermocycler) with 18S as the internal standard.

[2] = target: T1, hCAR1 interaction with coregulators (SRC-1, TIF2, SMRTα, mNCoR) (Homo sapiens, UniProt Q14994); experiment: Mammalian two-hybrid assay (HEK293T cells); type: cell-based
T1 construct: expressed in transfected cells; host or cells: HEK293T
T1 sequence (Q14994 1-348 isoform Q14994-2): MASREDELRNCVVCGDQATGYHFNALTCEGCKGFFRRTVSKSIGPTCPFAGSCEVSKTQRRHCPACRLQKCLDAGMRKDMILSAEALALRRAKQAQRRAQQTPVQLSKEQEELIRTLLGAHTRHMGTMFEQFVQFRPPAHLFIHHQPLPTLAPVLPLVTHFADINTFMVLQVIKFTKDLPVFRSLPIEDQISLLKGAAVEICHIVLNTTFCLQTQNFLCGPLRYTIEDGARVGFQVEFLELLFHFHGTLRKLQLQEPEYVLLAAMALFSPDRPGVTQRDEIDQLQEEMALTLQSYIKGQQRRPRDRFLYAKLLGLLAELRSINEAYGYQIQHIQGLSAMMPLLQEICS
Text: Briefly, mammalian two-hybrid assays were set up in HEK293T cells transfected with expression plasmids encoding VP16AD-hCAR1 fusion protein, GAL4DBD-co-activator fusion proteins, and the reporter plasmid pG5luc. […] Fold interaction represents pG5luc reporter activity normalized to the Renilla luciferase internal control. Data presented are the mean±SD of at least three independent transfections. *, p<0.001 compared to DMSO treatment within the indicated co-activator set. […] Briefly, mammalian two-hybrid assays were set up in HEK293T cells transfected with expression plasmids encoding VP16AD-hCAR1 fusion protein, GAL4DBD-co-repressor fusion proteins, and the reporter plasmid pG51luc. […] Fold interaction represents pG5luc reporter activity normalized to the Renilla luciferase internal control. Data presented are the mean±SD of at least three independent transfections. *, p<0.001 compared to DMSO treatment within the indicated co-repressor set.
The pACT-hCAR1, pBIND-coregulator peptide and pG5-luc were cotransfected into HEK293T cells. Renilla luciferase is constitutively expressed from the pBIND plasmids. The Dual-Glo Luciferase Assay (Promega) was used to measure pG5-luc luciferase activity. The relative luciferase activity was determined by normalizing firefly luciferase activity with Renilla luciferase activity.

[3] = system: HepG2, LS174T, and HEK293T cells; experiment: Cell viability (CellTiter-Glo)
Protocol: Cells were treated with indicated compounds for 24 h, and viability was measured by using CellTiter-Glo® reagent. […] Cell viability was measured 4 days post treatment by using CellTiter-Glo® reagent. Viability of cells treated with DMSO (negative control) was set to 100% in all assays.

CCOC(=O)Nc1ccc2c(c1)N(C(=O)CN(CC)CC)c1ccccc1CC2 [CINPA1]
CYP2B6 mRNA level [1]: moderately reduced the levels of CYP2B6
CYP3A4 mRNA level [1]: without significantly affecting CYP3A4
MDR1 mRNA level [1]: reduced MDR1 levels
corepressor (SMRTα, mNCoR) interaction with CAR-LBD ([2]; 5 μM CINPA1, 24 h): increased interaction
coactivator (SRC-1, TIF-2) binding to CAR-LBD ([2]; 5 μM CINPA1, presence or absence of CITCO, 24 h): reduced SRC-1 and TIF-2 coactivator binding
cytotoxicity at higher concentrations ([3]; 30 μM and 60 μM): cytotoxic to varying degrees
general cytotoxicity ([3]; concentration range effective in inhibiting CAR and PXR, 4-day assay): does not exhibit general cytotoxicity
